In ChEMBL document CHEMBL1142837, “Synthesis of new carbo- and heterocyclic analogues of 8-HETE and evaluation of their activity towards the PPARs” (Bioorg Med Chem Lett, 2005):

Columns and labels:
[1] = target: T1, Peroxisome proliferator-activated receptor gamma (Homo sapiens, UniProt P37231)
T1 sequence (P37231 whole entry): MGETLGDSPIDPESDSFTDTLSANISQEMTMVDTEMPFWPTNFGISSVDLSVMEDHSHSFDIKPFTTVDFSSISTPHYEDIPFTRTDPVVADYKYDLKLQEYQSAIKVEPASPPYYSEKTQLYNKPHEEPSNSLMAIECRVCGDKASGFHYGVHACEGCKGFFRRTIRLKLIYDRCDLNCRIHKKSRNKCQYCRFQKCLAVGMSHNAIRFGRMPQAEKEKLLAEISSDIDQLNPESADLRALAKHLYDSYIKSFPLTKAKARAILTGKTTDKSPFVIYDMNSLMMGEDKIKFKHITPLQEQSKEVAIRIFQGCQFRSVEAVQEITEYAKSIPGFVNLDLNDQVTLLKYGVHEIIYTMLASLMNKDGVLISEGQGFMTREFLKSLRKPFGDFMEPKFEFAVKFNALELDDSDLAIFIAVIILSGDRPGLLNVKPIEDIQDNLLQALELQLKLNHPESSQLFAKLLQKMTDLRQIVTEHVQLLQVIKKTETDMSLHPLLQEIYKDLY

[2] = target: T2, Peroxisome proliferator-activated receptor alpha (Homo sapiens, UniProt Q07869); experiment: In vitro effective concentration against human peroxisome proliferator activated receptor alpha/Gal4 in transactivation assay
T2 sequence (Q07869 whole entry): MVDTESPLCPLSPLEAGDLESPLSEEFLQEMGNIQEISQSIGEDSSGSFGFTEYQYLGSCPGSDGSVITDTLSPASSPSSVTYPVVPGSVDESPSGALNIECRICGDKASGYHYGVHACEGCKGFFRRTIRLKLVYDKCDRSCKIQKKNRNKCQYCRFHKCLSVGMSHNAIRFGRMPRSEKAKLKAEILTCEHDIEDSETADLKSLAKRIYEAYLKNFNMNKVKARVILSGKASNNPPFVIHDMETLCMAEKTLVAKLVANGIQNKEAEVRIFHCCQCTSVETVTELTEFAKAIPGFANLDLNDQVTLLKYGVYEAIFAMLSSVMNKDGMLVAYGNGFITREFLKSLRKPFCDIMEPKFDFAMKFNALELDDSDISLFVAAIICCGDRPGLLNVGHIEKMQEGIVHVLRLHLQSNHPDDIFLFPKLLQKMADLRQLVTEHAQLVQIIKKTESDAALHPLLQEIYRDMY

[3] = target: T1, Peroxisome proliferator-activated receptor gamma; experiment: In vitro effective concentration against human peroxisome proliferator activated receptor gamma/Gal4 in cell-based transactivation assay; format: functional

| Structure (SMILES) | Ki [1] [nM] | EC50 [2] [nM] | EC50 [3] [nM] |
| --- | --- | --- | --- |
| CCCCCOc1ccccc1C(O)CC#CCCCC(=O)OC (stereo unspecified) | 1050 | 173 | 642 |
| CCCCCOc1ncccc1C(O)C/C=C/CCCC(=O)OC (stereo unspecified) | > 10000 | > 10000 | > 10000 |
| CCCCCOc1ncccc1C(O)CCCCCCC(=O)OC (stereo unspecified) | > 10000 | > 10000 | > 10000 |
| CCCCCOc1ncccc1C(O)C/C=C/CCCC(=O)O (stereo unspecified) | > 10000 | > 10000 | > 10000 |
| CCCCCOc1ccccc1C(O)CCCCCCC(=O)O (stereo unspecified) | 6690 | > 10000 | > 10000 |
| CCCCCOc1ccccc1C(O)CCCCCCC(=O)OC (stereo unspecified) | 515 | > 10000 | > 10000 |
| CCCCCOc1nc2ccccc2cc1C(O)CC#CCCCC(=O)OC (stereo unspecified) | > 10000 | 262 | 1410 |
| CCCCCOc1ncccc1C(O)CCCCCCC(=O)O (stereo unspecified) | > 10000 | > 10000 | > 10000 |
| CCCCCOc1cc2ccccc2cc1C(O)CC#CCCCC(=O)O (stereo unspecified) | 4390 | – | > 10000 |
| CCCCCOc1cc2ccccc2cc1C(O)CC#CCCCC(=O)OC (stereo unspecified) | 695 | 1140 | > 10000 |
| CCCCCOc1cc2ccccc2cc1C(O)CCCCCCCC(=O)OC (stereo unspecified) | 579 | 1530 | 1360 |
| CCCCCOc1cc2ccccc2cc1C(O)C/C=C/CCCC(=O)OC (stereo unspecified) | 718 | 1450 | > 10000 |
| CCCCCOc1cc2ccccc2cc1C(O)CCCCCCC(=O)O (stereo unspecified) | 969 | 1480 | > 10000 |
| CCCCCOc1nc2ccccc2cc1C(O)CCCCCCCC(=O)OC (stereo unspecified) | > 10000 | > 10000 | > 10000 |
| CCCCCOc1ncccc1C(O)CC#CCCCC(=O)O (stereo unspecified) | > 10000 | 1540 | > 10000 |
| CCCCCOc1ccccc1C(O)CC=CCCCC(=O)OC (stereo unspecified) | 3760 | > 10000 | 28 |
| CCCCCOc1ccccc1C(O)CC=CCCCC(=O)O (stereo unspecified) | > 10000 | > 10000 | 340 |
| CCCCCOc1nc2ccccc2cc1C(O)CC=CCCCC(=O)OC (stereo unspecified) | 1330 | 1300 | 1550 |
| CCCCCOc1cc2ccccc2cc1C(O)CC=CCCCC(=O)O (stereo unspecified) | 1030 | 1190 | 1500 |
| CCCCCOc1nc2ccccc2cc1C(O)CC=CCCCC(=O)O (stereo unspecified) | > 10000 | 1090 | 1200 |
| CCCCCOc1nc2ccccc2cc1C(O)CCCCCC(=O)O (stereo unspecified) | 2860 | 1400 | 1570 |
| CCCCCOc1ccccc1C(O)CC#CCCCC(=O)O (stereo unspecified) | > 10000 | > 10000 | > 10000 |
| CCCCCOc1ncccc1C(O)CC#CCCCC(=O)OC (stereo unspecified) | > 10000 | 1630 | 549 |
| CCCCCOc1nc2ccccc2cc1C(O)CC#CCCCC(=O)O (stereo unspecified) | 947 | 114 | 617 |
